Experimental findings from US7074743B1, “Herbicidal composition comprising 4-iodo-2-[3-(4-methoxy-6-methyl-1,3,5-triazin-2-yl)ureidosulfonyl]benzoic esters” (priority 1995, dated 2006) are described below.

One assay concerns Phalaris canariensis. Nature of the assay: Herbicidal action on PHACA, visual scoring vs untreated, post-emergence 2-4 leaf stage (greenhouse / field trials). The class given is in vivo. How it is done:
(§1) The examples given below were performed in the greenhouse and, in some cases, in field trials.
(§2) The herbicides, or combinations, were applied in cereals after the weeds had emerged naturally using plot sprayers. After application, the results, such as damage to the crop plants and effect on broad-leaved weeds/grass weeds were assessed by means of visual scoring. The herbicidal action was assessed qualitatively and quantitatively by comparing untreated and treated plots on the basis of the effect on plant growth and the development of chloroses and necroses down to the complete destruction of the weeds (0–100%). The application was effected when the crop plants and weeds were in the 2–4 leaf stage. The test was evaluated approximately 4 weeks after application.
(§3) In the greenhouse experiments, the crop plants and broadleaved weeds/grass weeds were grown in No. 13 pots and treated in the 2–4 leaf stage. The pots were subsequently placed in the greenhouse under good growth conditions (temperature, atmospheric humidity, water supply).
(§4) The assessments were carried out similarly to those in the field trials, i.e. visual scoring of the treated plants in comparison with untreated control variants. These assessments were carried out 3 weeks after applying the test preparations and their combinations. The experiments had been set up in two replications.
(§5) To assess the combination effects, the activities of the individual components were added and compared with the activity of the mixtures in equal doses. It was frequently observed that the efficacies of the combinations exceeded the total of the individual activities.
(§6) In cases with less clear effects, the expected value was calculated using Colby's formula and compared with the empirically determined result. The calculated efficacy of a combination which is expected in theory is determined is using S.R. Colby's formula: “Calculation of synergistic and antagonistic responses of herbicide combinations”, Weeds 15 (1967), pages 20 to 22.
(§7) [formula] where • X=% damage caused by herbicide A at a rate of ×kg a.i./ha; • Y=% damage caused by herbicide B at a rate of y kg a.i./ha; • Z=% damage caused by a further herbicide C at a rate of z kg a.i./ha; • E=expected value, i.e. expected damage caused by herbicides A+B (or A+B+C) at x+y (or x+y+z) kg a.i./ha.
(§8) Synergistic effects were assumed to be when the empirical value exceeded the expected value. In the case of combinations with individual components with the same active substances, comparisons via the total formula were also possible.

For a further assay, the system named is Centaurea cyanus. Nature of the assay: Herbicidal action on CENCY, visual scoring vs untreated, post-emergence 2-4 leaf stage. It counts as in vivo. How it is done:
as §1, §2, §3, §4, §5, §6, §7, §8

The structures appear in SMILES notation.

`COC(=O)c1ccc(I)cc1S(=O)(=O)NC(=O)Nc1nc(C)nc(OC)n1.[Na]` [A), sodium salt of methyl 4-iodo-2-[3-(4-methoxy-6-methyl-1,3,5-triazin-2-yl)ureidosulfonyl]benzoate]: the PHACA % control in the assay with Phalaris canariensis (Table 1, 3 g of a.i./ha) is recorded as 0%; in the assay with Phalaris canariensis (Table 1, 5 g of a.i./ha), 15%; in the assay with Phalaris canariensis (Table 1, 10 g of a.i./ha), 35%; with Phalaris canariensis (Table 1, 20 g of a.i./ha) it was 53%; in the assay with Phalaris canariensis (Table 2, 3 g of a.i./ha), 0%; with Phalaris canariensis (Table 2, 5 g of a.i./ha), 15%. In addition, the PHACA % control in the assay with Phalaris canariensis (Table 2, 10 g of a.i./ha) was found to be 35%; with Phalaris canariensis (Table 2, 20 g of a.i./ha), 53%; in the assay on Phalaris canariensis (Table 3, 3 g of a.i./ha), 0%; with Phalaris canariensis (Table 3, 5 g of a.i./ha) it was 15%; with Phalaris canariensis (Table 3, 10 g of a.i./ha), 35%; in the assay on Phalaris canariensis (Table 3, 20 g of a.i./ha), 53%. In addition, the CENCY % control in the assay on Centaurea cyanus (Table 6, 5 g of a.i./ha) was found to be 0%; with Centaurea cyanus (Table 6, 10 g of a.i./ha), 30%; with Centaurea cyanus (Table 6, 15 g of a.i./ha), 60%; with Centaurea cyanus (Table 9, 2.5 g of a.i./ha), 30%; in the assay with Centaurea cyanus (Table 9, 5 g of a.i./ha), 43%; in the assay with Centaurea cyanus (Table 9, 10 g of a.i./ha), 58%. Further, the CENCY % control in the assay on Centaurea cyanus (Table 9, 20 g of a.i./ha) was determined as 78%; in the assay on Centaurea cyanus (Table 10, 5 g of a.i./ha) it was 0%; with Centaurea cyanus (Table 10, 10 g of a.i./ha), 30%; in the assay on Centaurea cyanus (Table 10, 15 g of a.i./ha) it was 60%.
